Results from article PMC7557804, “The Anti-Microbial Peptide (Lin-SB056-1)2-K Reduces Pro-Inflammatory Cytokine Release through Interaction with Pseudomonas aeruginosa Lipopolysaccharide” (Antibiotics, 2020).

What was measured:
Format in all cases: cell-based, Human
[1] = system: A549 cells; assay: Cytotoxicity (LDH release) towards A549 cells; details: LPS-stimulated A549, 4 h
Procedure: (§1) Human non-small-cell lung adenocarcinoma A549 cells (ATCC CCL-185; LGC Standards, Milan, Italy) and human monocytic THP-1 cells (ATCC TIB-202; LGC Standards) were cultured in tissue culture flasks in Dulbecco’s modified essential medium (DMEM) (Euroclone, Milan, Italy) and RPMI 1640 medium (Euroclone), respectively. Both media were supplemented with 2 mM L-glutamine (Euroclone) and 10% heat-inactivated fetal bovine serum (FBS; Euroclone). Confluent monolayers were detached from the culture flask with 0.25% trypsin/1 mM EDTA solution (Euroclone), suspended in complete culture medium and seeded into flat-bottom 96-well plates at a final density of 1 × 10^4 cells/well (A549) and 2 × 10^4 cells/well (THP-1). A549 cells were cultured for 24 h at 37 °C, 5% CO2 in order to allow adhesion and formation of semi-confluent monolayers. THP-1 cells were cultured for 3 days (37 °C, 5% CO2) in the presence of 100 nM TPA (Sigma-Aldrich, St. Louis, MO, USA) to induce their differentiation into macrophage-like cells.
The cytotoxicity of lin-SB056-1 and (lin-SB056-1)2-K towards A549 and THP-1 cells was evaluated to exclude a possible correlation between reduction in cytokine levels and decrease in cell numbers. To this end, culture supernatants of cells stimulated with LPS in the presence of the peptides were employed to quantify the amount of cytoplasmic LDH released by dead cells. Cells incubated in culture medium alone or in the presence of LPS served as an indication of spontaneous cell death (cell viability controls), while cells treated with a commercial lysis buffer (Pierce LDH cytotoxicity assay kit, Thermo Fisher Scientific) were used as cell death control (100% cell lysis). The enzymatic activity of LDH in cell supernatants was measured using the Pierce LDH cytotoxicity assay kit (Thermo Fisher Scientific) following manufacturer’s instructions. The cytotoxic effect was determined as follows: cytotoxicity (%) = [(LDH activity of A/LDH activity of B) × 100], where A represents peptide-treated or untreated cells (both in the presence and absence of LPS), and B corresponds to the cell lysis control.

[2] = system: THP-1 macrophages; assay: LPS-induced cytokine production by THP-1 macrophages; details: P. aeruginosa LPS 10 ng/mL, 4 h, 37 °C, 5% CO2
Procedure: as §1
The anti-inflammatory potential of lin-SB056-1 and (lin-SB056-1)2-K was assessed by evaluating their ability to reduce LPS-induced production of pro-inflammatory cytokines by A549 cells and THP-1 macrophages. […] Following incubation, cell culture supernatants were collected, filter sterilized (0.22 µm) and employed for the quantification of cytokines and the assessment of cell viability.
Different pro-inflammatory cytokines (i.e., IL-1β, IL-6, IL-8 and TNF-α) were quantified in cell culture supernatants through a bead-based multiplex immunoassay (LEGENDplex multi-analyte flow assay kit; BioLegend, San Diego, CA, USA) following manufacturer’s instructions. […] Following consecutive washing steps, the beads were resuspended in the LEGENDplex wash buffer and the samples were analyzed by flow cytometry (BD Accuri C6 flow cytometer; BD Biosciences, Mountain View, CA, United States). Data were acquired with the BD Accuri C6 software (BD Biosciences) (300 events per analyte) and analyzed with the LEGENDplex software (BioLegend). […]

[3] = system: A549 cells; assay: LPS-induced cytokine production by A549 cells (bead-based multiplex immunoassay); details: 4 h, 37 °C
Procedure: as §1
(§2) The anti-inflammatory potential of lin-SB056-1 and (lin-SB056-1)2-K was assessed by evaluating their ability to reduce LPS-induced production of pro-inflammatory cytokines by A549 cells and THP-1 macrophages. In order to ensure cytokine production, cell monolayers were stimulated with LPS from P. aeruginosa serotype 10 (purified by phenol extraction; Sigma-Aldrich, Milano, Italy) at a final concentration of 10 ng/mL (THP-1) and 800 ng/mL (A549). LPS concentrations used in the experiments were chosen based on preliminary assays aimed at identifying the minimum dose of the molecule able to stimulate cytokine production after 4 h of exposure. In order to assess the inhibitory activity of peptides on cytokine production, cell monolayers were incubated in complete culture medium in the presence of LPS and different concentrations of lin-SB056-1 and (lin-SB056-1)2-K (4.8 to 19.25 μM) for 4 h (37 °C, 5% CO2). Cells incubated in the presence of LPS alone were used as positive (cytokine production) control. Following incubation, cell culture supernatants were collected, filter sterilized (0.22 µm) and employed for the quantification of cytokines and the assessment of cell viability.
Different pro-inflammatory cytokines (i.e., IL-1β, IL-6, IL-8 and TNF-α) were quantified in cell culture supernatants through a bead-based multiplex immunoassay (LEGENDplex multi-analyte flow assay kit; BioLegend, San Diego, CA, USA) following manufacturer’s instructions. Briefly, 25 μL of cytokine standard or cell supernatant were incubated with 25 μL of anti-cytokine conjugated beads into V-bottom 96-well plates for 2 h. Following incubation, the plates were washed and subsequently incubated with the detection antibody (25 μL/well) for 1 h. A volume of 25 μL of streptavidin-phycoerythrin was added to each well, and the plates were incubated for another 30 min in the dark. Following consecutive washing steps, the beads were resuspended in the LEGENDplex wash buffer and the samples were analyzed by flow cytometry (BD Accuri C6 flow cytometer; BD Biosciences, Mountain View, CA, United States). Data were acquired with the BD Accuri C6 software (BD Biosciences) (300 events per analyte) and analyzed with the LEGENDplex software (BioLegend). Minimum detectable concentration (MDC+2STDEV) for the tested cytokines were as follows: IL-1β, 0.65 + 0.47 pg/mL; IL-6, 0.97 + 1.46 pg/mL; IL-8, 1.90 + 0.65 pg/mL; TNF-α, 0.88 + 0.27 pg/mL.

[4] = system: lung epithelial- and macrophage-cell lines stimulated with P. aeruginosa LPS; assay: LPS-induced production of pro-inflammatory cytokines, overall result
Procedure: as §2, with “In order to assess the inhibitory activity of peptides on cytokine production, cell monolayers were incubated in complete culture medium in the presence of LPS and different concentrations of lin-SB056-1 and (lin-SB056-1)2-K (4.8 to 19.25 μM) for 4 h (37 °C, 5% CO2). Cells incubated in the presence of LPS alone were used as positive (cytokine production) control.” left out
Different pro-inflammatory cytokines (i.e., IL-1β, IL-6, IL-8 and TNF-α) were quantified in cell culture supernatants through a bead-based multiplex immunoassay (LEGENDplex multi-analyte flow assay kit; BioLegend, San Diego, CA, USA) following manufacturer’s instructions. […] Following consecutive washing steps, the beads were resuspended in the LEGENDplex wash buffer and the samples were analyzed by flow cytometry (BD Accuri C6 flow cytometer; BD Biosciences, Mountain View, CA, United States). […]

[5] = 9.6 μM peptide, vs LPS-stimulated peptide-untreated control, statistically significant, mean of three independent experiments
[6] = 9.6 μM peptide, P. aeruginosa serotype 10 LPS 800 ng/mL, 5% CO2, complete culture medium, mean of at least three independent experiments, vs peptide-untreated control

[KWKIRVRLSA]2-K [(lin-SB056-1)2-K, dendrimeric derivative of lin-SB056-1]
cell death (LDH release), with LPS ([1]; up to 19.25 μM (highest tested), 37 °C, 5% CO2, relative to cell lysis control, at least three independent experiments): less than 5%
toxicity ([1]; up to 19.25 μM, LDH release): no detectable toxicity
reduction in secretion of IL-1β [2, 5]: 80%
reduction in secretion of IL-6 [2, 5]: 60%
effect on TNF-α levels ([2]; three independent experiments): a trend in decreasing TNF-α levels, no statistical significance was reached
reduction of IL-6 levels [3, 6]: ≤ 80%
reduction of IL-8 levels [3, 6]: ≤ 80%
effect on IL-6 release ([3]; LPS 800 ng/mL, peptide 4.8 to 19.25 μM): significant reduction
effect on IL-8 release ([3]; LPS 800 ng/mL, peptide 4.8 to 19.25 μM, lin-SB056-1 decrease at 19.25 μM (highest tested)): significant reduction
anti-inflammatory effect compared to monomeric counterpart ([4]; LPS and/or P. aeruginosa stimulation): superior anti-inflammatory effect compared to its monomeric counterpart
decrease in LPS-induced production of pro-inflammatory cytokines (IL-1β, IL-6 and IL-8) ([4]; lung epithelial- and macrophage-cell lines, P. aeruginosa LPS): up to 80%
